Results on 21 compounds are retold here after patent US8188102B2, “Amide derivative for inhibiting the growth of cancer cells” (Hanmi Holdings Co., Ltd., priority 2007, dated 2012).

Experiment [1] deals with SW-620 colon/rectal cancer cell line. The experiment in a line: Cancer cell growth inhibition, SW-620 (SRB). The settings on record: Homo sapiens, SW-620, 72 h, read-out: IC50 (nM) SW-620.
Experiment [2] deals with A431 skin cancer cell line. The experiment in a line: Cancer cell growth inhibition, A431 (SRB). Conditions: Homo sapiens, A-431, 72 h, read-out: ID50 (nM) A431.
Experiment [3] deals with SK-Br3 breast cancer cell line. The experiment in a line: Cancer cell growth inhibition, SK-Br3 (SRB). Conditions: Homo sapiens, SK-BR-3, 72 h, read-out: ID50 (nM) SK-Br3.
Experiment [4] has as its system H1975 lung cancer cell line. The experiment in a line: Cancer cell growth inhibition, H1975 (celltiter). Conditions: Homo sapiens, NCI-H1975, 48 h, read-out: IC50 (nM) H1975.

`CN(C)C/C=C/C(=O)Nc1cc2c(Nc3ccc(F)c(Cl)c3)ncnc2cc1O[C@H]1CCOC1` [BIBW2992, reference compound]: the IC50 in experiment [1] stood at 2640 nM.
Consider `COc1cc2ncnc(Nc3cccc(Cl)c3F)c2cc1OC1CCN(C(=O)CO)CC1` [Ex 1*], for which the IC50 in experiment [2] is 39 nM; in experiment [3] it was 293 nM; in experiment [4], over 1000 nM.
In the case of `C=CC(=O)N1CC[C@H](Oc2cc3c(Nc4ccc(Cl)c(Cl)c4F)ncnc3cc2OC)C1` [Example 8, 1-((3S)-3-(4-(3,4-dichloro-2-fluorophenylamino)-7-methoxyquinazolin-6-yloxy)pyrrolidin-1-yl)pro-2-pen-1-one], the IC50 in experiment [1] was over 5000 nM.
For `C=CC(=O)N1CC(Oc2cc3c(Nc4ccc(Cl)c(Cl)c4F)ncnc3cc2OC)C1` [Example 24, 1-(3-(4-(3,4-dichloro-2-fluorophenylamino)-7-methoxyquinazolin-6-yloxy)azetidin-1-yl)pro-2-pen-1-one], the figures for the IC50 in experiment [1] and in experiment [3] were over 5000 nM and 0.6 nM, respectively.
The matching figures for `C=CC(=O)N1CC(Oc2cc3c(Nc4ccc(F)c(Cl)c4)ncnc3cc2OC)C1` [Example 25, 1-(3-(4-(3-chloro-4-fluorophenylamino)-7-methoxyquinazolin-6-yloxy)azetidin-1-yl)pro-2-pen-1-one]: over 5000 nM and 0.4 nM.
As for `C=C(NC(C)=O)C(=O)N1CC(Oc2cc3c(Nc4ccc(F)c(Cl)c4F)ncnc3cc2OC)C1` [Example 31, N-(3-(3-(4-(3-chloro-2,4-difluorophenylamino)-7-methoxyquinazolin-6-yloxy)azetidin-1-yl)-3-oxopro-1-en-2-yl)acetamide], the IC50 was 3.1 nM in experiment [2], 2.5 nM in experiment [3] and 50 nM in experiment [4].
Regarding `COc1cc2ncnc(Nc3ccc(F)c(Cl)c3F)c2cc1OC1CN(C(=O)/C=C\Cl)C1` [Example 32, (Z)-3-chloro-1-(3-(4-(3-chloro-2,4-difluorophenylamino)-7-methoxyquinazolin-6-yloxy)azetidin-1-yl)pro-2-pen-1-one], the IC50 in experiment [2] amounted to 2.4 nM; in experiment [3], 2.2 nM; in experiment [4] it was 19 nM.
As to `C=CC(=O)N1CCC(Oc2cc3c(Nc4cccc(Cl)c4)ncnc3cc2OC)CC1` [Example 43, 1-(4-(4-(3-chlorophenylamino)-7-methoxyquinazolin-6-yloxy)piperidin-1-yl)pro-2-pen-1-one], the IC50 in experiment [1] is over 5000 nM; in experiment [3], 0.7 nM.
For `C=CC(=O)N1CC[C@H](Oc2cc3c(Nc4ccc(F)c(Cl)c4F)ncnc3cc2OC)C[C@H]1C(=O)OC` [Example 119, (2S,4S)-methyl 1-acryloyl-4-(4-(3-chloro-2,4-difluorophenylamino)-7-methoxyquinazolin-6-yloxy)piperidin-2-carboxylate], the results for the IC50 in experiment [2] and in experiment [3] were 5 nM and 6 nM, respectively.
`C=CC(=O)N1CC[C@H](Oc2cc3c(Nc4ccc(F)c(Cl)c4F)ncnc3cc2OC)C[C@H]1C(=O)NC` [Example 121, (2S,4S)-1-acryloyl-4-(4-(3-chloro-2,4-difluorophenylamino)-7-methoxyquinazolin-6-yloxy)-N-methylpiperidin-2-carboxamide]: the IC50 in experiment [2] is 2.2 nM; in experiment [3], 2.5 nM.
For `C=CC(=O)N1CC[C@H](Oc2cc3c(Nc4ccc(F)c(Cl)c4F)ncnc3cc2OC)C[C@H]1C(=O)NCC` [Example 122, (2S,4S)-1-acryloyl-4-(4-(3-chloro-2,4-difluorophenylamino)-7-methoxyquinazolin-6-yloxy)-N-ethylpiperidin-2-carboxamide] the same measures were 8 nM and 2.3 nM.
For `C=CC(=O)N1CC[C@H](Oc2cc3c(Nc4ccc(F)c(Cl)c4F)ncnc3cc2OC)C[C@H]1C(=O)NCCC` [Example 123, (2S,4S)-1-acryloyl-4-(4-(3-chloro-2,4-difluorophenylamino)-7-methoxyquinazolin-6-yloxy)-N-propylpiperidin-2-carboxamide] the same measures were 12 nM and 5 nM.
For `C=CC(=O)N1CC[C@H](Oc2cc3c(Nc4ccc(F)c(Cl)c4F)ncnc3cc2OC)C[C@H]1C(=O)NC(C)C` [Example 124, (2S,4S)-1-acryloyl-4-(4-(3-chloro-2,4-difluorophenylamino)-7-methoxyquinazolin-6-yloxy)-N-isopropylpiperidin-2-carboxamide] the same measures were 7.5 nM and 2.8 nM.
Take `C=CC(=O)N1CC[C@H](Oc2cc3c(Nc4ccc(F)c(Cl)c4F)ncnc3cc2OC)C[C@H]1C(=O)NO` [Example 125, (2S,4S)-1-acryloyl-4-(4-(3-chloro-2,4-difluorophenylamino)-7-methoxyquinazolin-6-yloxy)-N-hydroxypiperidin-2-carboxamide]: the IC50 was 10 nM in experiment [2] and 1 nM in experiment [3].
For the compound `C=CC(=O)N1CC[C@H](Oc2cc3c(Nc4ccc(F)c(Cl)c4F)ncnc3cc2OC)C[C@H]1C(=O)NCCCO` [Example 131, (2S,4S)-1-acryloyl-4-(4-(3-chloro-2,4-difluorophenylamino)-7-methoxyquinazolin-6-yloxy)-N-(3-hydroxypropyl)piperidin-2-carboxamide], the IC50 was 20 nM in experiment [2] and 0.5 nM in experiment [3].
The matching figures for `C=CC(=O)N1CC[C@H](Oc2cc3c(Nc4ccc(F)c(Cl)c4F)ncnc3cc2OC)C[C@H]1C(=O)NCCN1CCOCC1` [Example 132, (2S,4S)-1-acryloyl-4-(4-(3-chloro-2,4-difluorophenylamino)-7-methoxyquinazolin-6-yloxy)-N-(2-morpholinoethyl)piperidin-2-carboxamide]: 8.3 nM and 0.5 nM.
Consider `C=CC(=O)N1CC[C@@H](Oc2cc3c(Nc4ccc(F)c(Cl)c4F)ncnc3cc2OC)C[C@@H]1C(=O)O` [Example 134, (2R,4R)-1-acryloyl-4-(4-(3-chloro-2,4-difluorophenylamino)-7-methoxyquinazolin-6-yloxy)piperidin-2-carboxylic acid], for which the IC50 in experiment [2] worked out at 979 nM; in experiment [3] it was 4 nM.
For `C=CC(=O)N1CC[C@@H](Oc2cc3c(Nc4ccc(F)c(Cl)c4F)ncnc3cc2OC)C[C@@H]1C(=O)NO` [Example 137, (2R,4R)-1-acryloyl-4-(4-(3-chloro-2,4-difluorophenylamino)-7-methoxyquinazolin-6-yloxy)-N-hydroxypiperidin-2-carboxamide] the same measures were 1.7 nM and 1.3 nM.
As for `C=CC(=O)N1CC[C@@H](Oc2cc3c(Nc4ccc(F)c(Cl)c4F)ncnc3cc2OC)C[C@@H]1C(=O)NCCS(C)(=O)=O` [Example 138, (2R,4R)-1-acryloyl-4-(4-(3-chloro-2,4-difluorophenylamino)-7-methoxyquinazolin-6-yloxy)-N-(2-(methylsulfonyl)ethyl)piperidin-2-carboxamide], the IC50 in experiment [2] came to 2.4 nM; in experiment [3], 1.3 nM.
For `C=CC(=O)N1CC[C@@H](Oc2cc3c(Nc4ccc(Br)cc4F)ncnc3cc2OC)C[C@@H]1C(N)=O` [Example 140, (2R,4R)-1-acryloyl-4-(4-(4-bromo-2-fluorophenylamino)-7-methoxyquinazolin-6-yloxy)piperidin-2-carboxamide], the values for the IC50 in experiment [2] and in experiment [3] were 1.1 nM and 0.3 nM, respectively.
As for `CS(=O)(=O)CCNCc1ccc(-c2ccc3ncnc(Nc4ccc(OCc5cccc(F)c5)c(Cl)c4)c3c2)o1` [Lapatinib, reference compound], the values for the IC50 in experiment [2], in experiment [1] and in experiment [3] were 80 nM, over 5000 nM and 40 nM, respectively.
